“Also recorded” adds a separate entry of the source. Where two headings read alike, the source gives them in different places.
Columns and labels:
α-glucosidase [1] = molecular target: T1, α-glucosidase (Saccharomyces cerevisiae, UniProt P53341); assay: α-glucosidase inhibition assay; type: biochemical
α-amylase = test system: α-amylase; design: method as in doi:10.1016/j.molstruc.2022.133650; details: at 108 μM; cited from earlier work
[2] = test system: breast cancer cell line MCF-7; design: method as in PMID 30366316; details: cited from earlier work
α-glucosidase [3] = molecular target: T1, α-glucosidase; details: cited from earlier work
α-glucosidase [4] = molecular target: T1, α-glucosidase; assay: Enzyme kinetic studies (Lineweaver–Burk plot, secondary plot); type: biochemical; details: Km increased, Vmax unchanged
Experimental: A Lineweaver–Burk plot was generated to identify the type of inhibition and the Michaelis–Menten constant (Km) value was determined from the plot between the reciprocal of the substrate concentration (1/[S]) and reciprocal of enzyme rate (1/V) over various inhibitor concentrations. The experimental inhibitor constant (Ki) value was constructed by secondary plots of the inhibitor concentration [I] versus Km.

T1 sequence (P53341 whole entry): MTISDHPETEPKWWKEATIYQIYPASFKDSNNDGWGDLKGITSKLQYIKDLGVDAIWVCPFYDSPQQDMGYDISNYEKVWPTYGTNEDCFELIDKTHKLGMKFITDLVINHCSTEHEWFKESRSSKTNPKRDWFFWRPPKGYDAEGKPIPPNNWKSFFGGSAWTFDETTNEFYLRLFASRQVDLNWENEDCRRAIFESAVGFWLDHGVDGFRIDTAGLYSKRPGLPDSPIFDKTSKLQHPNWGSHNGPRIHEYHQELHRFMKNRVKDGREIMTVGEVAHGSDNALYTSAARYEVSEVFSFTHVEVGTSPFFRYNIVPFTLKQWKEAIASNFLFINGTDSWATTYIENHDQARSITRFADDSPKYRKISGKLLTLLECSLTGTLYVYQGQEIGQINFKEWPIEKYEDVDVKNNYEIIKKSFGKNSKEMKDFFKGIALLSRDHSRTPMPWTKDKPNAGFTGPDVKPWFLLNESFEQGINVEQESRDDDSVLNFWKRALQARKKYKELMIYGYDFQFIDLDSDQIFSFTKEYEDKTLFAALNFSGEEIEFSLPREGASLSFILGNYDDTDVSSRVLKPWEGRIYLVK

Question: With `COc1cc(-c2nc3ccccc3c(=O)[nH]2)ccc1OCC(=O)Nc1ccc([N+](=O)[O-])cc1` [Compound 7n, 2-(2-methoxy-4-(4-oxo-3,4-dihydroquinazolin-2-yl)phenoxy)-N-(4-nitrophenyl)acetamide] as the molecule, how does the “activity against α-glucosidase under the tested concentration” value (α-glucosidase [1]) read?
Answer: did not show any activity

Question: With `COc1cc(-c2nc3ccccc3[nH]2)ccc1OCC(=O)Nc1ccc(F)cc1` [F] as the molecule, how does the “% inhibition against α-amylase” value (α-amylase) read?
Answer: 45.0 ± 0.8%

Question: With `COc1cc(-c2nc3ccccc3c(=O)[nH]2)ccc1OCC(=O)Nc1cccc(Cl)c1` [Compound 7e, N-(3-chlorophenyl)-2-(2-methoxy-4-(4-oxo-3,4-dihydroquinazolin-2-yl)phenoxy)acetamide] as the molecule, how does the melting point read?
Answer: 203 to 205 °C

Question: For `COc1cc(-c2nc3ccccc3c(=O)[nH]2)ccc1OCC(=O)NCc1ccc(C)cc1` [Compound 7p, 2-(2-methoxy-4-(4-oxo-3,4-dihydroquinazolin-2-yl)phenoxy)-N-(4-methylbenzyl)acetamide], which melting point is on record?
Answer: 191 to 193 °C

Question: Which results are given for `COc1ccc(NC(=O)COc2ccc(-c3nc4ccccc4c(=O)[nH]3)cc2OC)cc1` [Compound 7l, 2-(2-methoxy-4-(4-oxo-3,4-dihydroquinazolin-2-yl)phenoxy)-N-(4-methoxyphenyl)acetamide]?
Answer: melting point: 205 to 207 °C; activity against α-glucosidase under the tested concentration (α-glucosidase [1]): did not show any activity

Question: With `O=c1c2ccccc2nc(SCc2cn(Cc3ccc(Br)cc3)nn2)n1CCc1ccccc1` [B] as the molecule, how does the “toxicity against breast cancer cell line MCF-7” value [2] read?
Answer: no toxicity

Question: With `COc1cc(-c2nc3ccccc3c(=O)[nH]2)ccc1OCC(=O)Nc1ccccc1C` [Compound 7h, 2-(2-methoxy-4-(4-oxo-3,4-dihydroquinazolin-2-yl)phenoxy)-N-(o-tolyl)acetamide] as the molecule, how does the melting point read?
Answer: 196 to 198 °C

Question: With `COc1cc(-c2nc3ccccc3c(=O)[nH]2)ccc1OCC(=O)Nc1ccc(Cl)cc1` [Compound 7f, N-(4-chlorophenyl)-2-(2-methoxy-4-(4-oxo-3,4-dihydroquinazolin-2-yl)phenoxy)acetamide] as the molecule, how does the melting point read?
Answer: 211 to 213 °C

Question: For `COc1cc(-c2nc3ccccc3c(=O)[nH]2)ccc1OCC(=O)Nc1ccc(F)cc1` [Compound 7c, N-(4-fluorophenyl)-2-(2-methoxy-4-(4-oxo-3,4-dihydroquinazolin-2-yl)phenoxy)acetamide], which melting point is on record?
Answer: 216 to 218 °C

Question: For `COc1cc(-c2nc3ccccc3c(=O)[nH]2)ccc1OCC(=O)Nc1ccc2ccccc2c1` [Compound 7o, 2-(2-methoxy-4-(4-oxo-3,4-dihydroquinazolin-2-yl)phenoxy)-N-(naphthalen-2-yl)acetamide], which melting point is on record?
Answer: 217 to 219 °C

Question: For `O=C(Cn1cc(COc2ccc(-c3nc4ccccc4c(=O)[nH]3)cc2)nn1)Nc1ccccc1` [C], which type of inhibition (α-glucosidase [3]) is on record?
Answer: competitive

Question: Which melting point does the source give for `COc1cc(-c2nc3ccccc3c(=O)[nH]2)ccc1OCC(=O)Nc1ccccc1Cl` [Compound 7d, N-(2-chlorophenyl)-2-(2-methoxy-4-(4-oxo-3,4-dihydroquinazolin-2-yl)phenoxy)acetamide] here?
Answer: 207 to 209 °C

Question: For `COc1cc(-c2nc3ccccc3c(=O)[nH]2)ccc1OCC(=O)NCc1ccccc1` [Compound 7r, N-benzyl-2-(2-methoxy-4-(4-oxo-3,4-dihydroquinazolin-2-yl)phenoxy)acetamide], which melting point is on record?
Answer: 194 to 196 °C

Question: For `COc1cc(-c2nc3ccccc3c(=O)[nH]2)ccc1OCC(=O)Nc1ccc(C)cc1` [Compound 7i, 2-(2-methoxy-4-(4-oxo-3,4-dihydroquinazolin-2-yl)phenoxy)-N-(p-tolyl)acetamide], which melting point is on record?
Answer: 199 to 201 °C

Question: For `COc1cc(-c2nc3ccccc3c(=O)[nH]2)ccc1OCC(=O)Nc1ccccc1` [Compound 7a, 2-(2-methoxy-4-(4-oxo-3,4-dihydroquinazolin-2-yl)phenoxy)-N-phenylacetamide], which melting point is on record?
Answer: 192 to 194 °C

Question: Which “activity against α-glucosidase under the tested concentration” value (α-glucosidase [1]) does the source give for `COc1cc(-c2nc3ccccc3c(=O)[nH]2)ccc1OCC(=O)Nc1ccc(O)cc1` [Compound 7m, N-(4-hydroxyphenyl)-2-(2-methoxy-4-(4-oxo-3,4-dihydroquinazolin-2-yl)phenoxy)acetamide] here?
Answer: did not show any activity

Question: For `CCc1ccc(NC(=O)COc2ccc(-c3nc4ccccc4c(=O)[nH]3)cc2OC)cc1` [Compound 7k, N-(4-ethylphenyl)-2-(2-methoxy-4-(4-oxo-3,4-dihydroquinazolin-2-yl)phenoxy)acetamide], which melting point is on record?
Answer: 195 to 197 °C

Question: With `COc1cc(-c2nc3ccccc3c(=O)[nH]2)ccc1OCC(=O)Nc1c(C)cccc1C` [Compound 7j, N-(2,6-dimethylphenyl)-2-(2-methoxy-4-(4-oxo-3,4-dihydroquinazolin-2-yl)phenoxy)acetamide] as the molecule, how does the melting point read?
Answer: 215 to 217 °C

Question: Which melting point does the source give for `COc1cc(-c2nc3ccccc3c(=O)[nH]2)ccc1OCC(=O)NCc1ccc(F)cc1` [Compound 7q, N-(4-fluorobenzyl)-2-(2-methoxy-4-(4-oxo-3,4-dihydroquinazolin-2-yl)phenoxy)acetamide] here?
Answer: 224 to 226 °C

Question: Which results are given for `COc1cc(-c2nc3ccccc3c(=O)[nH]2)ccc1OCC(=O)Nc1ccccc1F` [Compound 7b, N-(2-fluorophenyl)-2-(2-methoxy-4-(4-oxo-3,4-dihydroquinazolin-2-yl)phenoxy)acetamide]?
Answer: melting point: 222 to 225 °C; type of inhibition (α-glucosidase [4]): competitive type; also recorded: competitive inhibition; also recorded: competitive inhibitor

Question: With `COc1cc(-c2nc3ccccc3c(=O)[nH]2)ccc1OCC(=O)Nc1ccc(Br)cc1` [Compound 7g, N-(4-bromophenyl)-2-(2-methoxy-4-(4-oxo-3,4-dihydroquinazolin-2-yl)phenoxy)acetamide] as the molecule, how does the melting point read?
Answer: 203 to 205 °C
